# Paper PMC3433420 (PLoS ONE, 2012)
# Read-outs that look alike come from different tables or passages of the source. Residues, ends and D or L forms follow the SMILES beside them.
# How the values were obtained:
# PIK3R1-C SH2 domain = target: T1, PIK3R1-C SH2 domain (Homo sapiens, UniProt P27986); assay: FP saturation binding assay; settings: protein PIK3R1-C, high-confidence ErbB interactions, mean of replicate hits
# T1 construct: 6X His; thioredoxin; made in house; host or cells: E. coli BL21(DE3)pLysS
# In short: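 KD values come from least-squares fits of fluorescence polarization (ex 530, em 555 nm), corrected for thioredoxin nonspecific binding and plate baseline, with outliers pruned. Fixed 10 nM labeled peptide met a 0.002–10 µM protein series for 20 min at room temperature in HEPES/KCl/Tween/DTT buffer, pH 7.8.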
# SH2 and PTB domains = settings: original PM interactions, ref Jones et al. 2006 / Kaushansky et al. Chem and Biol 2008, cited from earlier work
# From the text: Supplement pone.0044471.s022.xlsx, sheet "Most recent PM interactions" | column: Kd || Supplement pone.0044471.s022.xlsx, sheet "All original PM interactions" | column: Kd
# T1 sequence (P27986 624-718 limits assumed): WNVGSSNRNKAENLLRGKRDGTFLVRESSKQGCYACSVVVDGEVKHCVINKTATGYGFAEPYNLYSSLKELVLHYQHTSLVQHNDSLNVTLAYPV
compound,measurement,setting,value
CSCC[C@H](NC(=O)[C@H](CCC(=O)O)NC(=O)[C@H](CCC(=O)O)NC(=O)[C@H](Cc1ccc(OP(=O)(O)O)cc1)NC(=O)CNC(=O)[C@H](CCC(N)=O)NC(=O)[C@H](CCC(=O)O)NC(=O)[C@@H](N)CO)C(=O)N[C@@H](CCCNC(=N)N)C(=O)N[C@@H](C)C(=O)N[C@@H](Cc1ccccc1)C(=O)N[C@@H](CCC(N)=O)C(=O)N[C@@H](CC(=O)O)C(=O)O [ErbB3 1289 13-mer] (HELM PEPTIDE1{S.E.Q.G.[O=C([C@H](Cc1ccc(OP(=O)(O)O)cc1)N[*:1])[*:2]].E.E.M.R.A.F.Q.D}$$$$V2.0),Kd,PIK3R1-C SH2 domain,200 nM
"DNLYpYWDQDPPEd [ErbB2 pY1222, N-terminally rhodamine-labeled 13-mer phosphopeptide]",Kd,SH2 and PTB domains; Protein ABL1,1840 nM
same,Kd,SH2 and PTB domains; Protein ABL2,190 nM
same,Kd,SH2 and PTB domains; Protein BCAR3,2000 nM
same,Kd,SH2 and PTB domains; Protein BLK,2000 nM
same,Kd,SH2 and PTB domains; Protein BMX,2000 nM
same,Kd,SH2 and PTB domains; Protein BTK,2000 nM
same,Kd,SH2 and PTB domains; Protein CRKL,1460 nM
same,Kd,SH2 and PTB domains; Protein DAPP1,2000 nM
same,Kd,SH2 and PTB domains; Protein FGR,2000 nM
same,Kd,SH2 and PTB domains; Protein GRB10,490 nM
same,Kd,SH2 and PTB domains; Protein HSH2D,2000 nM
same,Kd,SH2 and PTB domains; Protein ITK,2000 nM
same,Kd,SH2 and PTB domains; Protein NCK1,2000 nM
same,Kd,SH2 and PTB domains; Protein PIK3R1-C,2000 nM
same,Kd,SH2 and PTB domains; Protein PIK3R1-NC,1840 nM
same,Kd,SH2 and PTB domains; Protein PIK3R2-NC,2000 nM
same,Kd,SH2 and PTB domains; Protein PIK3R3-C,2000 nM
same,Kd,SH2 and PTB domains; Protein PIK3R3-NC,780 nM
same,Kd,SH2 and PTB domains; Protein PLCG1-N,2000 nM
same,Kd,SH2 and PTB domains; Protein PLCG1-NC,1790 nM
same,Kd,SH2 and PTB domains; Protein PLCG2-N,2000 nM
same,Kd,SH2 and PTB domains; Protein PLCG2-NC,2000 nM
same,Kd,SH2 and PTB domains; Protein PTPN6-C,2000 nM
same,Kd,SH2 and PTB domains; Protein PTPN11-N,2000 nM
same,Kd,SH2 and PTB domains; Protein RASA1-C,2000 nM
same,Kd,SH2 and PTB domains; Protein RASA1-N,500 nM
same,Kd,SH2 and PTB domains; Protein RASA1-NC,2000 nM
same,Kd,SH2 and PTB domains; Protein SH2B2,1470 nM
same,Kd,SH2 and PTB domains; Protein SH2B3,2000 nM
same,Kd,SH2 and PTB domains; Protein SH2D1A,2000 nM
same,Kd,SH2 and PTB domains; Protein SH2D1B,2000 nM
same,Kd,SH2 and PTB domains; Protein SH2D3A,1600 nM
same,Kd,SH2 and PTB domains; Protein SH2D3C,710 nM
same,Kd,SH2 and PTB domains; Protein SHC1-PTB,90 nM
same,Kd,SH2 and PTB domains; Protein SHC1,2000 nM
same,Kd,SH2 and PTB domains; Protein SHC2-PTB,460 nM
same,Kd,SH2 and PTB domains; Protein SHC3,1710 nM
same,Kd,SH2 and PTB domains; Protein SHC4,2000 nM
same,Kd,SH2 and PTB domains; Protein SHD,2000 nM
same,Kd,SH2 and PTB domains; Protein SHF,2000 nM
same,Kd,SH2 and PTB domains; Protein SLA2,2000 nM
same,Kd,SH2 and PTB domains; Protein SLA,2000 nM
same,Kd,SH2 and PTB domains; Protein SOCS1,1920 nM
same,Kd,SH2 and PTB domains; Protein SOCS2,2000 nM
same,Kd,SH2 and PTB domains; Protein SOCS3,2000 nM
same,Kd,SH2 and PTB domains; Protein SOCS5,2000 nM
same,Kd,SH2 and PTB domains; Protein SOCS6,2000 nM
same,Kd,SH2 and PTB domains; Protein SRC,2000 nM
same,Kd,SH2 and PTB domains; Protein SUPT6H,2000 nM
same,Kd,SH2 and PTB domains; Protein SYK-C,1970 nM
same,Kd,SH2 and PTB domains; Protein SYK-N,200 nM
same,Kd,SH2 and PTB domains; Protein SYK-NC,460 nM
same,Kd,SH2 and PTB domains; Protein TEC,1610 nM
same,Kd,SH2 and PTB domains; Protein TENC1,840 nM
same,Kd,SH2 and PTB domains; Protein TNS1,2000 nM
same,Kd,SH2 and PTB domains; Protein TNS3,1290 nM
same,Kd,SH2 and PTB domains; Protein TXK,2000 nM
same,Kd,SH2 and PTB domains; Protein VAV1,2000 nM
same,Kd,SH2 and PTB domains; Protein VAV2,2000 nM
same,Kd,SH2 and PTB domains; Protein VAV3,2000 nM
same,Kd,SH2 and PTB domains; Protein YES1,2000 nM
